Source: ChEMBL document CHEMBL5321231, “Synthesis, antiviral activity, and computational study of β-d-xylofuranosyl nucleoside phosphonates” (Eur J Med Chem, 2023)
Calls of active or inactive are those of the source. The calls are words filed in the database; no cut-off is given here.

What was measured:
[1] = Cytotoxicity against human RD cells assessed as reduction in cell viability by neutral red dye based spectrophotometric analysis; type: toxicity
[2] = Cytotoxicity against human RD cells assessed as reduction in cell viability by visual analysis; type: toxicity, cell-based
[3] = Selectivity index, ratio of CC50 for cytotoxicity against human RD cells to EC50 for antiviral activity against EV-68 US/KY/14-18953 infected in human RD cells by visual analysis; type: toxicity, cell-based; conditions: read-out: Ratio CC50/EC50
Hepatitis B virus = assay: Antiviral activity against Hepatitis B virus; type: functional, organism-based
[4] = tested on: Respiratory syncytial virus; assay: Antiviral activity against RSV A2 strain infected in vervet monkey MA-104 cells assessed as reduction in virus induced cytopathic effect incubated for 6 days by neutral red dye based spectrophotometric analysis; type: functional, organism-based; conditions: time 6.0 day
enterovirus D68 [5] = assay: Antiviral activity against EV-68 US/KY/14-18953 infected in human RD cells assessed as reduction in virus induced cytopathic effect incubated for 3 days by visual analysis; type: functional, organism-based; conditions: Enterovirus D, US/KY/14-18953, RD, 72 h
Tacaribe virus = assay: Antiviral activity against TCRV TRVL 11573 strain infected in African green monkey Vero 76 cells assessed as reduction in virus induced cytopathic effect incubated for 7 days by neutral red dye based spectrophotometric analysis; type: functional, organism-based; conditions: Mammarenavirus tacaribeense, time 7.0 day
Herpesviridae sp. = assay: Antiviral activity against HSV; type: functional, organism-based
Influenza A virus = assay: Antiviral activity against influenza A virus H1N1 California/07/2009 infected in dog MDCK cells assessed as reduction in virus induced cytopathic effect incubated for 6 days by neutral red dye based spectrophotometric analysis; type: functional, organism-based; conditions: time 6.0 day
[6] = tested on: Middle East respiratory syndrome-related coronavirus; assay: Antiviral activity against MERS-CoV EMC strain infected in […] cells assessed as reduction in virus induced cytopathic effect incubated for 5 days by neutral red dye based spectrophotometric analysis; type: functional, organism-based; conditions: time 5.0 day
Measles morbillivirus [7] = assay: Antiviral activity against MeV CC strain infected in African green monkey Vero 76 cells assessed as reduction in virus induced cytopathic effect incubated for 6 days by neutral red dye based spectrophotometric analysis; type: functional, organism-based; conditions: Vero 76, 144 h
Measles morbillivirus [8] = assay: Antiviral activity against MeV CC strain infected in African green monkey Vero 76 cells assessed as reduction in virus induced cytopathic effect incubated for 6 days by visual analysis; type: functional, organism-based; conditions: Vero 76, 144 h
[9] = Cytotoxicity against African green monkey Vero 76 cells assessed as reduction in cell viability by visual analysis; type: toxicity, cell-based; conditions: chlorocebus sabaeus
enterovirus D68 [10] = assay: Antiviral activity against EV-68 US/KY/14-18953 infected in human RD cells assessed as reduction in virus induced cytopathic effect incubated for 3 days by neutral red dye based spectrophotometric analysis; type: functional, organism-based; conditions: Enterovirus D, US/KY/14-18953, RD, 72 h
[11] = Cytotoxicity against human Huh-7 cells assessed as reduction in cell viability by neutral red dye based spectrophotometric analysis; type: toxicity
[12] = Cytotoxicity against human Huh-7 cells assessed as reduction in cell viability by visual analysis; type: toxicity, cell-based
dengue virus type 2 [13] = assay: Antiviral activity against DENV-2 New Guinea C infected in human Huh-7 cells assessed as reduction in virus induced cytopathic effect incubated for 6 days by neutral red dye based spectrophotometric analysis; type: functional, organism-based; conditions: Huh-7, 144 h
[14] = Cytotoxicity against African green monkey Vero 76 cells assessed as reduction in cell viability by neutral red dye based spectrophotometric analysis; type: toxicity; conditions: chlorocebus sabaeus
dengue virus type 2 [15] = assay: Antiviral activity against DENV-2 New Guinea C infected in human Huh-7 cells assessed as reduction in virus induced cytopathic effect incubated for 6 days by visual analysis; type: functional, organism-based; conditions: Huh-7, 144 h
[16] = Selectivity index, ratio of CC50 for cytotoxicity against human RD cells to EC50 for antiviral activity against EV-68 US/KY/14-18953 infected in human RD cells by neutral red dye based spectrophotometric analysis; type: toxicity, cell-based; conditions: read-out: Ratio CC50/EC50
[17] = Selectivity index, ratio of CC50 for cytotoxicity against African green monkey Vero 76 cells to EC50 for antiviral activity against MeV CC strain infected in African green monkey Vero 76 cells by visual analysis; type: toxicity, cell-based; conditions: read-out: Ratio CC50/EC50
[18] = Selectivity index, ratio of CC50 for cytotoxicity against African green monkey Vero 76 cells to EC50 for antiviral activity against MeV CC strain infected in African green monkey Vero 76 cells by neutral red dye based spectrophotometric analysis; type: toxicity, cell-based; conditions: read-out: Ratio CC50/EC50

SMILES | CC50 [1] [µM] | CC50 [2] [µM] | Activity (Hepatitis B virus) | Activity [4] | EC50 (enterovirus D68 [5]) [µM] | Activity (Tacaribe virus) | Activity (Herpesviridae sp.) | Activity (Influenza A virus) | Activity [6] | EC50 (Measles morbillivirus [7]) [µM] | EC50 (Measles morbillivirus [8]) [µM] | CC50 [9] [µM] | EC50 (enterovirus D68 [10]) [µM] | CC50 [11] [µM] | CC50 [12] [µM] | EC50 (dengue virus type 2 [13]) [µM] | CC50 [14] [µM] | EC50 (dengue virus type 2 [15]) [µM] | selectivity ratio [17] | selectivity ratio [18] | other results
CC(C)S(=O)(=O)n1c(N)nc2ccc(/C(=N/O)c3ccccc3)cc21 [ENVIROXIME] | 5.5 | 10 | – | – | – | – | – | – | – | – | – | – | – | – | – | – | – | – | – | – | –
Nc1nc2c(ncn2[C@@H]2O[C@H](CO)[C@H](OCP(=O)(O)O)[C@H]2O)c(=O)[nH]1 | > 100 | 73 | inactive | inactive | 47 | inactive | inactive | inactive | inactive | > 100 | > 100 | > 100 | 40 | > 100 | > 100 | > 100 | > 100 | > 100 | – | – | selectivity ratio [3]: 1.6; selectivity ratio [16]: > 2.5
Nc1ncnc2c1ncn2[C@@H]1O[C@H](CO)[C@H](OCP(=O)(O)O)[C@H]1O | > 100 | > 100 | inactive | inactive | 16 | inactive | inactive | inactive | inactive | 14 | 12 | > 100 | 20 | > 100 | > 100 | > 100 | > 100 | > 100 | > 8.3 | > 7.1 | selectivity ratio [3]: > 6.3; selectivity ratio [16]: > 5
NC(=O)c1ncn([C@@H]2O[C@H](CO)[C@@H](O)[C@H]2O)n1 | – | – | – | inactive | – | inactive | – | inactive | – | – | – | – | – | – | – | – | – | – | – | – | –
O=c1ccn([C@@H]2O[C@H](CO)[C@H](OCP(=O)(O)O)[C@H]2O)c(=O)[nH]1 | > 100 | > 100 | inactive | inactive | > 100 | inactive | inactive | inactive | inactive | 82 | 72 | > 100 | > 100 | > 100 | > 100 | > 84 | > 100 | > 100 | > 1.4 | > 1.2 | –
Nc1ccn([C@@H]2O[C@H](CO)[C@@H](O)[C@H]2F)c(=O)n1 | – | – | – | – | – | – | – | – | – | 0.95 | 0.7 | > 100 | – | – | – | – | > 100 | – | > 140 | > 110 | –
Nc1ccn([C@@H]2O[C@H](CO)[C@H](OCP(=O)(O)O)[C@H]2O)c(=O)n1 | > 100 | > 100 | inactive | inactive | > 100 | inactive | inactive | inactive | inactive | 49 | 72 | > 100 | > 100 | > 100 | > 100 | > 100 | > 100 | > 100 | > 1.4 | > 2 | –
O=c1[nH]cnc2c1ncn2[C@@H]1O[C@H](CO)[C@H](OCP(=O)(O)O)[C@H]1O | > 100 | > 100 | inactive | inactive | 46 | inactive | inactive | inactive | inactive | > 100 | > 100 | > 100 | 89 | > 100 | > 100 | > 100 | > 100 | > 100 | – | – | selectivity ratio [3]: > 2.2; selectivity ratio [16]: > 1.1
